Results reported in PubChem BioAssay AID272 (DTP/NCI, 2004).
Where “and” joins values, the source holds several entries; their conditions need not be identical. Identical values can stand only once. Results filed as inconclusive are left out. Residues, ends and D or L forms follow the SMILES beside them. *: point of attachment. Trt = c1ccc(C(c2ccccc2)(c2ccccc2)*)cc1; Cbz = O=C(OCc1ccccc1)*; Bn = c1ccc(C*)cc1; βAla = NCCC(=O)O

Test system: Lewis lung carcinoma i.m., BDF1 mice, T/C %
Test: NCI In Vivo Anticancer Drug Screen. Data for tumor model Lewis Lung Carcinoma (intramuscular) in B6D2F1 (BDF1) mice
Summary of the method: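 Value is the ratio of a treated-group measurement (T) to the matching vehicle-control measurement (C), using either survival or tumour size in mice bearing transplanted tumours.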

[1] = endpoint: median survival time, dose: 10.0 mg/kg/injection, schedule: Q01DX011 (ip), vehicle: saline, higher = longer survival
[2] = endpoint: median survival time, dose: 20.0 mg/kg/injection, schedule: Q01DX011 (ip), vehicle: saline, higher = longer survival
[3] = endpoint: median survival time, dose: 40.0 mg/kg/injection, schedule: Q01DX011 (ip), vehicle: saline, higher = longer survival
[4] = endpoint: mean tumor weight, dose: 25.0 mg/kg/injection, schedule: Q01DX011 (ip), vehicle: saline, higher = larger tumour
[5] = endpoint: mean tumor weight, dose: 50.0 mg/kg/injection, schedule: Q01DX011 (ip), vehicle: saline, higher = larger tumour
[6] = endpoint: median survival time, dose: 25.0 mg/kg/injection, schedule: Q01DX011 (ip), vehicle: saline, higher = longer survival

Cc1c(N)nc(C(CC(N)=O)NCC(N)C(N)=O)nc1C(=O)NC(C(=O)NC(C)C(O)C(C)C(=O)NC(C(=O)NCCc1nc(-c2nc(C(=O)NCCCNCCCCN)cs2)cs1)C(C)O)C(OC1OC(CO)C(O)C(O)C1OC1OC(CO)C(O)C(OC(N)=O)C1O)c1cnc[nH]1 (configuration not stated)
T/C (endpoint: median survival time, dose: 3.9 mg/kg/injection, schedule: Q01DX011 (ip), vehicle: saline, higher = longer survival): 120 % of control | T/C (endpoint: median survival time, dose: 10.8 mg/kg/injection, schedule: Q01DX011 (ip), vehicle: saline, higher = longer survival): 150 % of control | T/C (endpoint: median survival time, dose: 18.0 mg/kg/injection, schedule: Q01DX011 (ip), vehicle: saline, higher = longer survival): 152 % of control

Cc1nc(N)sc1CCCl
T/C (endpoint: mean tumor weight (est.), dose: 10.0 mg/kg/injection, schedule: Q01DX011 (ip), vehicle: saline, higher = larger tumour): 86 % of control | T/C (endpoint: mean tumor weight (est.), dose: 20.0 mg/kg/injection, schedule: Q01DX011 (ip), vehicle: saline, higher = larger tumour): 105 % of control | T/C (endpoint: mean tumor weight (est.), dose: 40.0 mg/kg/injection, schedule: Q01DX011 (ip), vehicle: saline, higher = larger tumour): 91 % of control | T/C [1]: 98 % of control | T/C [2]: 104 % of control | T/C [3]: 104 % of control

O=C(CBr)c1ccc(I)cc1
T/C (endpoint: median survival time, dose: 1.25 mg/kg/injection, schedule: Q01DX011 (ip), vehicle: saline with Tween-80, higher = longer survival): 102 % of control | T/C (endpoint: median survival time, dose: 2.5 mg/kg/injection, schedule: Q01DX011 (ip), vehicle: saline with Tween-80, higher = longer survival): 86 % of control | T/C (endpoint: median survival time, dose: 5.0 mg/kg/injection, schedule: Q01DX011 (ip), vehicle: saline with Tween-80, higher = longer survival): 89 % of control | T/C (endpoint: median survival time, dose: 10.0 mg/kg/injection, schedule: Q01DX011 (ip), vehicle: saline with Tween-80, higher = longer survival): 104 % of control

COC(=O)C(CSC(c1ccccc1)(c1ccccc1)c1ccccc1)NC(=O)C(CSCc1ccccc1)NC(=O)CCNC(=O)OCc1ccccc1 (configuration not stated) ({Cbz-βAla}-Cys(Bn)-Cys(Trt)-OMe; configuration not given here)
T/C (endpoint: median survival time, dose: 4.0 mg/kg/injection, schedule: Q01DX009 (ip), vehicle: Klucel (hydroxypropylcellulose) (HPC), higher = longer survival): 121 % of control | T/C (endpoint: median survival time, dose: 32.0 mg/kg/injection, schedule: Q01DX009 (ip), vehicle: Klucel (hydroxypropylcellulose) (HPC), higher = longer survival): 171 % of control | T/C (endpoint: median survival time, dose: 64.0 mg/kg/injection, schedule: Q01DX009 (ip), vehicle: Klucel (hydroxypropylcellulose) (HPC), higher = longer survival): 161 % of control

COc1cc([C@@H]2c3cc4c(c(O)c3C[C@H]3COC(=O)[C@@H]32)OCO4)cc(OC)c1OC
T/C (endpoint: mean tumor weight (est.), dose: 0.5 mg/kg/injection, schedule: Q01DX011 (ip), vehicle: Klucel (hydroxypropylcellulose) (HPC), higher = larger tumour): 106 % of control | T/C (endpoint: mean tumor weight (est.), dose: 2.0 mg/kg/injection, schedule: Q01DX011 (ip), vehicle: Klucel (hydroxypropylcellulose) (HPC), higher = larger tumour): 93 % of control

N=c1ccn2c(n1)OC1C(O)C(CO)OC12 (configuration not stated)
T/C (endpoint: mean tumor weight, dose: 200.0 mg/kg/injection, schedule: Q01DX011 (ip), vehicle: water, higher = larger tumour): 34 % of control | T/C (endpoint: mean tumor weight, dose: 400.0 mg/kg/injection, schedule: Q01DX011 (ip), vehicle: water, higher = larger tumour): 64 % of control | T/C (endpoint: median survival time, dose: 200.0 mg/kg/injection, schedule: Q01DX011 (ip), vehicle: water, higher = longer survival): 115 % of control | T/C (endpoint: median survival time, dose: 400.0 mg/kg/injection, schedule: Q01DX011 (ip), vehicle: water, higher = longer survival): 124 % of control

Nc1nc2n[nH]nc2c(=O)[nH]1
T/C (endpoint: mean tumor weight, dose: 25.0 mg/kg/injection, schedule: Q01DX011 (ip), vehicle: other, higher = larger tumour): 81 % of control | T/C (endpoint: mean tumor weight, dose: 100.0 mg/kg/injection, schedule: Q01DX011 (ip), vehicle: other, higher = larger tumour): 64 % of control

CCc1ccc(/C=C/c2ccc(O)c3ncccc23)[n+](C)c1
T/C (endpoint: mean tumor weight, dose: 4.0 mg/kg/injection, schedule: Q01DX011 (ip), vehicle: saline, higher = larger tumour): 53 % of control | T/C (endpoint: mean tumor weight, dose: 8.0 mg/kg/injection, schedule: Q01DX011 (ip), vehicle: saline, higher = larger tumour): 61 % of control | T/C (endpoint: mean tumor weight, dose: 16.0 mg/kg/injection, schedule: Q01DX011 (ip), vehicle: saline, higher = larger tumour): 46 % of control | T/C (endpoint: median survival time, dose: 4.0 mg/kg/injection, schedule: Q01DX011 (ip), vehicle: saline, higher = longer survival): 97 % of control | T/C (endpoint: median survival time, dose: 8.0 mg/kg/injection, schedule: Q01DX011 (ip), vehicle: saline, higher = longer survival): 116 % of control

O=c1[nH]c(=O)n(C2CC(O)C(CO)O2)cc1F (configuration not stated)
T/C (endpoint: mean tumor weight, dose: 10.0 mg/kg/injection, schedule: Q01DX009 (ip), vehicle: saline, higher = larger tumour): 59 % of control | T/C (endpoint: mean tumor weight, dose: 10.0 mg/kg/injection, schedule: Q01DX011 (ip), vehicle: other, higher = larger tumour): 83 % of control | T/C (endpoint: mean tumor weight, dose: 20.0 mg/kg/injection, schedule: Q01DX009 (ip), vehicle: saline, higher = larger tumour): 72 % of control | T/C (endpoint: mean tumor weight, dose: 20.0 mg/kg/injection, schedule: Q01DX011 (ip), vehicle: other, higher = larger tumour): 29 % of control | T/C (endpoint: mean tumor weight, dose: 20.0 mg/kg/injection, schedule: Q01DX011 (ip), vehicle: saline, higher = larger tumour): 31 % of control and 42 % of control | T/C [4]: 58 % of control | T/C (endpoint: mean tumor weight, dose: 40.0 mg/kg/injection, schedule: Q01DX009 (ip), vehicle: saline, higher = larger tumour): 65 % of control | T/C (endpoint: mean tumor weight, dose: 40.0 mg/kg/injection, schedule: Q01DX011 (ip), vehicle: saline, higher = larger tumour): 10 % of control and 17 % of control | T/C [5]: 18 % of control | T/C (endpoint: mean tumor weight, dose: 80.0 mg/kg/injection, schedule: Q01DX009 (ip), vehicle: saline, higher = larger tumour): 16 % of control | T/C (endpoint: mean tumor weight, dose: 80.0 mg/kg/injection, schedule: Q01DX011 (ip), vehicle: other, higher = larger tumour): 4 % of control | T/C (endpoint: mean tumor weight, dose: 80.0 mg/kg/injection, schedule: Q01DX011 (ip), vehicle: saline, higher = larger tumour): 7 % of control | T/C (endpoint: mean tumor weight, dose: 100.0 mg/kg/injection, schedule: Q01DX011 (ip), vehicle: saline, higher = larger tumour): 3 % of control | T/C (endpoint: median survival time, dose: 10.0 mg/kg/injection, schedule: Q01DX011 (ip), vehicle: other, higher = longer survival): 98 % of control | T/C [1]: 107 % of control and 120 % of control | T/C (endpoint: median survival time, dose: 19.0 mg/kg/injection, schedule: Q01DX007 (sc), vehicle: saline, higher = longer survival): 100 % of control | T/C (endpoint: median survival time, dose: 20.0 mg/kg/injection, schedule: Q01DX011 (ip), vehicle: other, higher = longer survival): 108 % of control | T/C [2]: 91 % of control and 112 % of control and 123 % of control | T/C (endpoint: median survival time, dose: 20.0 mg/kg/injection, schedule: Q01DX011 (ip), vehicle: water, higher = longer survival): 105 % of control | T/C [6]: 108 % of control | T/C (endpoint: median survival time, dose: 31.0 mg/kg/injection, schedule: Q01DX007 (sc), vehicle: saline, higher = longer survival): 121 % of control | T/C (endpoint: median survival time, dose: 40.0 mg/kg/injection, schedule: Q01DX009 (ip), vehicle: saline, higher = longer survival): 114 % of control and 115 % of control | T/C [3]: 97 % of control and 100 % of control | T/C (endpoint: median survival time, dose: 40.0 mg/kg/injection, schedule: Q01DX011 (ip), vehicle: water, higher = longer survival): 113 % of control | T/C (endpoint: median survival time, dose: 50.0 mg/kg/injection, schedule: Q01DX009 (ip), vehicle: saline, higher = longer survival): 101 % of control | T/C (endpoint: median survival time, dose: 80.0 mg/kg/injection, schedule: Q01DX009 (ip), vehicle: saline, higher = longer survival): 124 % of control | T/C (endpoint: median survival time, dose: 80.0 mg/kg/injection, schedule: Q01DX011 (ip), vehicle: saline, higher = longer survival): 153 % of control | T/C (endpoint: median survival time, dose: 80.0 mg/kg/injection, schedule: Q01DX011 (ip), vehicle: water, higher = longer survival): 121 % of control | T/C (endpoint: median survival time, dose: 86.0 mg/kg/injection, schedule: Q01DX007 (sc), vehicle: saline, higher = longer survival): 121 % of control

N=C(N)SCc1c2ccccc2c(CSC(=N)N)c2ccccc12
T/C (endpoint: mean tumor weight, dose: 12.5 mg/kg/injection, schedule: Q01DX011 (ip), vehicle: saline, higher = larger tumour): 94 % of control | T/C [4]: 84 % of control | T/C [5]: 52 % of control | T/C (endpoint: median survival time, dose: 12.5 mg/kg/injection, schedule: Q01DX011 (ip), vehicle: saline, higher = longer survival): 110 % of control | T/C [6]: 104 % of control

O=C(Nc1ccc(C2=NCCN2)cc1)c1ccc(C(=O)Nc2ccc(C3=NCCN3)cc2)c(Cl)c1
T/C (endpoint: median survival time, dose: 4.0 mg/kg/injection, schedule: Q01DX011 (ip), vehicle: water, higher = longer survival): 90 % of control

CCCCCCC(=O)O[C@H]1CC[C@H]2[C@@H]3CCC4=CC(=O)CC[C@]4(C)[C@H]3CC[C@]12C
T/C (endpoint: median survival time, dose: 20.0 mg/kg/injection, schedule: Q01DX009 (ip), vehicle: Klucel (hydroxypropylcellulose) (HPC), higher = longer survival): 94 % of control | T/C (endpoint: median survival time, dose: 40.0 mg/kg/injection, schedule: Q01DX009 (ip), vehicle: Klucel (hydroxypropylcellulose) (HPC), higher = longer survival): 90 % of control | T/C (endpoint: median survival time, dose: 80.0 mg/kg/injection, schedule: Q01DX009 (ip), vehicle: Klucel (hydroxypropylcellulose) (HPC), higher = longer survival): 91 % of control | T/C (endpoint: median survival time, dose: 160.0 mg/kg/injection, schedule: Q01DX009 (ip), vehicle: Klucel (hydroxypropylcellulose) (HPC), higher = longer survival): 110 % of control

CC(=O)c1ccc(Oc2ccc(/C(C)=N\N=C(N)N)cc2)cc1
T/C (endpoint: mean tumor weight (est.), dose: 12.5 mg/kg/injection, schedule: Q01DX011 (ip), vehicle: saline with Tween-80, higher = larger tumour): 66 % of control | T/C (endpoint: mean tumor weight (est.), dose: 25.0 mg/kg/injection, schedule: Q01DX011 (ip), vehicle: saline with Tween-80, higher = larger tumour): 74 % of control | T/C (endpoint: median survival time, dose: 12.5 mg/kg/injection, schedule: Q01DX011 (ip), vehicle: saline with Tween-80, higher = longer survival): 91 % of control

COC(=O)C[C@](O)(CCC(C)(C)O)C(=O)O[C@@H]1C(OC)=C[C@]23CCCN2CCc2cc4c(cc2[C@H]13)OCO4
T/C (endpoint: mean tumor weight, dose: 0.25 mg/kg/injection, schedule: Q01DX011 (ip), vehicle: saline, higher = larger tumour): 103 % of control | T/C (endpoint: mean tumor weight, dose: 0.5 mg/kg/injection, schedule: Q01DX011 (ip), vehicle: saline, higher = larger tumour): 104 % of control | T/C (endpoint: mean tumor weight, dose: 0.5 mg/kg/injection, schedule: Q01DX011 (ip), vehicle: water, higher = larger tumour): 75 % of control | T/C (endpoint: mean tumor weight, dose: 1.0 mg/kg/injection, schedule: Q01DX011 (ip), vehicle: water, higher = larger tumour): 106 % of control | T/C (endpoint: median survival time, dose: 0.25 mg/kg/injection, schedule: Q01DX011 (ip), vehicle: saline, higher = longer survival): 114 % of control | T/C (endpoint: median survival time, dose: 0.5 mg/kg/injection, schedule: Q01DX011 (ip), vehicle: saline, higher = longer survival): 114 % of control
